From US10351706B2, “Near-infrared fluorescent dyes and uses thereof” (East China University of Science and Technology, priority 2015, dated 2019) come the findings set out here.

Data set [1] in a line: UV-visible absorption spectral test (Shimadzu UV2600 UV-visible spectrometer). The data set is classed as physicochemical. To be noted: different dyes in chloroform solution. The source says: (§1) The following data are the spectral test data of compound 3d in different solvents (UV-visible data are taken from Shimadzu UV2600 UV-visible spectrometer and fluorescence data are taken from PTI QM4 fluorescence spectrometer):
(§2) The following data are the spectral test data of different dyes in chloroform solution: […]

Data set [2] can be described thus: Fluorescence spectral test (PTI QM4 fluorescence spectrometer). To be noted: different dyes in chloroform solution. The data set is classed as physicochemical.
Text: as §1, §2

In data set [1], `CCN(CC)c1ccc2cc3c(cc2c1)C1(c2ccccc2Oc2ccccc21)c1cc2c(cc1=C3c1ccccc1C)C=CC(=[N+](CC)CC)C=2` [Compound 1a] displayed an Extinction coefficient of 217000 cm^−1M^−1 and a Maximum absorption wavelength of 836 nm. Besides, the Maximum emission wavelength in data set [2] is listed as 864 nm.
In data set [1], `Cc1ccccc1C1=c2cc3c(cc2C2(c4ccccc4Oc4ccccc42)c2cc4cc(O)ccc4cc21)=CC(=O)C=C3` [Compound 4b] registered an Extinction coefficient of 131000 cm^−1M^−1 and a Maximum absorption wavelength of 779 nm. The Maximum emission wavelength in data set [2] is given as 804 nm.
